Reference: patent US9399072B2, “Methods of treatment of pancreatic cancer” (Abraxis BioScience, LLC, priority 2010, dated 2016)

Experiments:
[1] = test system: locally advanced pancreatic cancer; settings: 126 patients with locally advanced pancreatic cancer; cited from earlier work
pancreatic cancer = settings: in vivo; cited from earlier work
[2] = test system: gemcitabine-resistant pancreatic cancer; settings: second-line, small studies; cited from earlier work
[3] = Phase I study of Nab-paclitaxel with vandetanib: MTD, DLT, adverse events; format: in vivo, human
Excerpt: Patients were randomized to one of two cohorts. […] A 3+3 design was used.

Compound: O=c1[nH]cc(F)c(=O)[nH]1 [5-FU, 5-fluororuracil]
- median overall survival [1]: 4.2 months
- median time to disease progression [1]: 0.9 months

Compound: Nc1ccn([C@@H]2O[C@H](CO)[C@@H](O)C2(F)F)c(=O)n1 [gemcitabine]
- median overall survival [1]: 5.7 months
- median time to disease progression [1]: 2.1 months
- median overall survival (pancreatic cancer): 6.0 months
- median progression free survival (pancreatic cancer): 3.5 months

Compound: CC(=O)O[C@H]1C(=O)[C@@]2(C)[C@H]([C@H](OC(=O)c3ccccc3)[C@]3(O)C[C@H](OC(=O)[C@H](O)[C@@H](NC(=O)c4ccccc4)c4ccccc4)C(C)=C1C3(C)C)[C@]1(OC(C)=O)CO[C@@H]1C[C@@H]2O [paclitaxel]
- median overall survival [2]: 17.5 weeks
- response rate [2]: 6%

Compound: COc1cc2c(Nc3ccc(Br)cc3F)ncnc2cc1OCC1CCN(C)CC1 [vandetanib]
- MTD ([3]; cohort A: daily, combined with 100 mg/m^2 Nab-paclitaxel weekly for three out of four weeks): 300 mg
- MTD ([3]; cohort B: daily, in combination with 260 mg/m^2 Nab-paclitaxel every three weeks): 300 mg
